pEC50: −log10 of the molar value.

The term pEC50 denotes the EC50 on a negative log10 scale, so that one unit is a factor of ten. Usually Emax stands for the size of the effect at its maximum, as opposed to the concentration needed.

The test has as its target human F508del-CFTR (Homo sapiens, UniProt P13569, DEL508-508). The test can be described thus: F508del-CFTR cell surface expression (corrector activity), DiscoveRx ß-galactosidase complementation chemiluminescence assay in recombinant U2OS cell line.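 For all read-outs here: U2OS cells co-expressing ProLink-tagged F508del-CFTR and a membrane-anchored enzyme acceptor, where more surface CFTR restores β-galactosidase activity measured by chemiluminescence.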 Particulars: U2OS cell line, 16h compound incubation; for pEC50: EC50, F508del-CFTR cell surface expression, geomean values; for Emax: U2OS, in relation to the Emax of the corrector lumacaftor (=100%), arithmetic mean values.

Sequence of human F508del-CFTR (P13569 with tags, fused parts or gaps DEL508-508): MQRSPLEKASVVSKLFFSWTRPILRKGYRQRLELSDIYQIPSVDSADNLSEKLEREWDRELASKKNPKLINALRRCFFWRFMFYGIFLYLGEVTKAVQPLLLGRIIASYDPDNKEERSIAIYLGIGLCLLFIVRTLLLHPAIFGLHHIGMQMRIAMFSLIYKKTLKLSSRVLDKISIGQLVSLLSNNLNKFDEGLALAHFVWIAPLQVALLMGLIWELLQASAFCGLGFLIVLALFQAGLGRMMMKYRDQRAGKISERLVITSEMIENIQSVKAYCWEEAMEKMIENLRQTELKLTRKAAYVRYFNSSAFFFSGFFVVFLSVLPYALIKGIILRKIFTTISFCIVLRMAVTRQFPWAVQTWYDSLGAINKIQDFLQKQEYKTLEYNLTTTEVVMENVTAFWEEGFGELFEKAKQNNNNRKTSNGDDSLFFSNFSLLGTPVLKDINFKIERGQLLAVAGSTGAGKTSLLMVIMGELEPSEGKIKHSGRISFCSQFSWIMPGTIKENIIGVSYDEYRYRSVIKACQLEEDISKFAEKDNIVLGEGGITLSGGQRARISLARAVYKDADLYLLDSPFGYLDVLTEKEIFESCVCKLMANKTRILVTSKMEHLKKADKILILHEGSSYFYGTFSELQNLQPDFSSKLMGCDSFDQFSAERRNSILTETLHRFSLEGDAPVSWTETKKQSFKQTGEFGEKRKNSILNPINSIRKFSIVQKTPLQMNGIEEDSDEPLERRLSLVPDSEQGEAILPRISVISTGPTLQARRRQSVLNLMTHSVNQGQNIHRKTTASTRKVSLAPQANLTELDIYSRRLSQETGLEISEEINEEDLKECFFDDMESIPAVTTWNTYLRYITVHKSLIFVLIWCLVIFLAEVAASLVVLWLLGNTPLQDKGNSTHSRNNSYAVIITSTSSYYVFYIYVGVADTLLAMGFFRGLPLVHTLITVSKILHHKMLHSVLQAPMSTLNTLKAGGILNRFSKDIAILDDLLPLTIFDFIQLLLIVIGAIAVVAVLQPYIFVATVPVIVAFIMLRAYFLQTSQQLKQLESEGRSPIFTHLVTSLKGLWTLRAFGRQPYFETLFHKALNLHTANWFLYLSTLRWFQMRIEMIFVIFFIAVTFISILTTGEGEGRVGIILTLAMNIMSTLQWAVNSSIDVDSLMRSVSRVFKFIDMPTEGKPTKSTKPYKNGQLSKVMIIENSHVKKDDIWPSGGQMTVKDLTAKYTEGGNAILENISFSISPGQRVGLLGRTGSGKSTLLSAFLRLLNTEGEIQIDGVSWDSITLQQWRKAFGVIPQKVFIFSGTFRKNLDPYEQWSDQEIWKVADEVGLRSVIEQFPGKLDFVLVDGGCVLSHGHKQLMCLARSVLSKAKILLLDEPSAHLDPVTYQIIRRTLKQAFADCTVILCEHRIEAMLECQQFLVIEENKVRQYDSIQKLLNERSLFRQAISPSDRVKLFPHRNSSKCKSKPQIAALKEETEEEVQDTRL

`CC(C)C[C@H]1C(=O)N(C)C2(CC2)C(=O)N[C@H](Cc2ccccc2)COc2cnc3ccc(F)cc3c2C(=O)N[C@H](C(=O)NCCc2ccc(-n3nccn3)cc2)CC(=O)N1C` [Example 135, (3′S,7′S,13′R)-N-(4-(2H-1,2,3-triazol-2-yl)phenethyl)-13′-benzyl-20′-fluoro-7′-isobutyl-6′,9′-dimethyl-1′,5′,8′,11′-tetraoxo-2′,3′,4′,5′,6′,7′,8′,9′,11′,12′,13′,14′-dodecahydro-1′H-spiro[cyclopropane-1,10′-[1]oxa[4,7,10,14]tetraazacycloheptadecino[17,16-c]quinoline]-3′-carboxamide]: the pEC50 is 6.75 and the Emax turned out to be 255%.
As to `CC(C)C[C@H]1C(=O)N(C)C2(CC2)C(=O)N[C@H](Cc2ccccc2)COc2cnc3ccc(F)cc3c2C(=O)N[C@H](C(=O)NCCc2cccc(-n3nccn3)c2)CC(=O)N1C` [Example 136, (3′S,7′S,13′R)-N-(3-(2H-1,2,3-triazol-2-yl)phenethyl)-13′-benzyl-20′-fluoro-7′-isobutyl-6′,9′-dimethyl-1′,5′,8′,11′-tetraoxo-2′,3′,4′,5′,6′,7′,8′,9′,11′,12′,13′,14′-dodecahydro-1′H-spiro[cyclopropane-1,10′-[1]oxa[4,7,10,14]tetraazacycloheptadecino[17,16-c]quinoline]-3′-carboxamide], the pEC50 was 6.57 and the Emax stood at 271%.
`CC(C)C[C@H]1C(=O)N(C)C2(CC2)C(=O)N[C@H](Cc2ccccc2)COc2cnc3ccc(F)cc3c2C(=O)N[C@H](C(=O)NCCc2ccc(-c3ncccn3)cc2)CC(=O)N1C` [Example 137, (3′S,7′S,13′R)-13′-benzyl-20′-fluoro-7′-isobutyl-6′,9′-dimethyl-1′,5′,8′,11′-tetraoxo-N-(4-(pyrimidin-2-yl)phenethyl)-2′,3′,4′,5′,6′,7′,8′,9′,11′,12′,13′,14′-dodecahydro-1′H-spiro[cyclopropane-1,10′-[1]oxa[4,7,10,14]tetraazacycloheptadecino[17,16-c]quinoline]-3′-carboxamide]: the pEC50 was 6.60 and the Emax came out at 311%.
For `CC(C)C[C@H]1C(=O)N(C)C2(CC2)C(=O)N[C@H](Cc2ccccc2)COc2cnc3ccc(F)cc3c2C(=O)N[C@H](C(=O)NCCc2cccc(-c3ncccn3)c2)CC(=O)N1C` [Example 138, (3′S,7′S,13′R)-13′-benzyl-20′-fluoro-7′-isobutyl-6′,9′-dimethyl-1′,5′,8′,11′-tetraoxo-N-(3-(pyrimidin-2-yl)phenethyl)-2′,3′,4′,5′,6′,7′,8′,9′,11′,12′,13′,14′-dodecahydro-1′H-spiro[cyclopropane-1,10′-[1]oxa[4,7,10,14]tetraazacycloheptadecino[17,16-c]quinoline]-3′-carboxamide], the negative logarithm of the EC50 (pEC50) was 6.27 and the Emax turned out to be 292%.
Regarding `CC(C)C[C@H]1C(=O)N(C)C2(CC2)C(=O)N[C@H](Cc2ccccc2)COc2cnc3ccc(F)cc3c2C(=O)N[C@H](C(=O)NCCc2cnn(C3CC3)c2)CC(=O)N1C` [Example 139, (3′S,7′S,13′R)-13′-benzyl-N-(2-(1-cyclopropyl-1H-pyrazol-4-yl)ethyl)-20′-fluoro-7′-isobutyl-6′,9′-dimethyl-1′,5′,8′,11′-tetraoxo-2′,3′,4′,5′,6′,7′,8′,9′,11′,12′,13′,14′-dodecahydro-1′H-spiro[cyclopropane-1,10′-[1]oxa[4,7,10,14]tetraazacycloheptadecino[17,16-c]quinoline]-3′-carboxamide], the pEC50 is 6.33 and the Emax stood at 381%.
As to `CC(C)C[C@H]1C(=O)N(C)C2(CC2)C(=O)N[C@H](Cc2ccccc2)COc2cnc3ccc(F)cc3c2C(=O)N[C@H](C(=O)NCCc2nc(C3CC3)no2)CC(=O)N1C` [Example 140, (3′S,7′S,13′R)-13′-benzyl-N-(2-(3-cyclopropyl-1,2,4-oxadiazol-5-yl)ethyl)-20′-fluoro-7′-isobutyl-6′,9′-dimethyl-1′,5′,8′,11′-tetraoxo-2′,3′,4′,5′,6′,7′,8′,9′,11′,12′,13′,14′-dodecahydro-1′H-spiro[cyclopropane-1,10′-[1]oxa[4,7,10,14]tetraazacycloheptadecino[17,16-c]quinoline]-3′-carboxamide], the pEC50 was 6.85 and the Emax was 318%.
The like results for `Cc1cc(CCNC(=O)[C@@H]2CC(=O)N(C)[C@@H](CC(C)C)C(=O)N(C)C3(CC3)C(=O)N[C@H](Cc3ccccc3)COc3cnc4ccc(F)cc4c3C(=O)N2)no1` [Example 141, (3′S,7′S,13′R)-13′-benzyl-20′-fluoro-7′-isobutyl-6′,9′-dimethyl-N-(2-(5-methylisoxazol-3-yl)ethyl)-1′,5′,8′,11′-tetraoxo-2′,3′,4′,5′,6′,7′,8′,9′,11′,12′,13′,14′-dodecahydro-1′H-spiro[cyclopropane-1,10′-[1]oxa[4,7,10,14]tetraazacycloheptadecino[17,16-c]quinoline]-3′-carboxamide] were, in that order, 6.50 and 331%.
As to `CC(C)C[C@H]1C(=O)N(C)C2(CC2)C(=O)N[C@H](Cc2ccccc2)COc2cnc3ccc(F)cc3c2C(=O)N[C@H](C(=O)NCCc2cc(C3CC3)on2)CC(=O)N1C` [Example 142, (3′S,7′S,13′R)-13′-benzyl-N-(2-(5-cyclopropylisoxazol-3-yl)ethyl)-20′-fluoro-7′-isobutyl-6′,9′-dimethyl-1′,5′,8′,11′-tetraoxo-2′,3′,4′,5′,6′,7′,8′,9′,11′,12′,13′,14′-dodecahydro-1′H-spiro[cyclopropane-1,10′-[1]oxa[4,7,10,14]tetraazacycloheptadecino[17,16-c]quinoline]-3′-carboxamide], the pEC50 is 6.71 and the Emax was determined as 381%.
On to `CC(C)C[C@H]1C(=O)N(C)C2(CC2)C(=O)N[C@H](Cc2ccccc2)COc2cnc3ccc(F)cc3c2C(=O)N[C@H](C(=O)NCCc2cnn(C)c2)CC(=O)N1C` [Example 143, (3′S,7′S,13′R)-13′-benzyl-20′-fluoro-7′-isobutyl-6′,9′-dimethyl-N-(2-(1-methyl-1H-pyrazol-4-yl)ethyl)-1′,5′,8′,11′-tetraoxo-2′,3′,4′,5′,6′,7′,8′,9′,11′,12′,13′,14′-dodecahydro-1′H-spiro[cyclopropane-1,10′-[1]oxa[4,7,10,14]tetraazacycloheptadecino[17,16-c]quinoline]-3′-carboxamide], for which the pEC50 is 6.04 and the Emax was 320%.
Regarding `CC(C)C[C@H]1C(=O)N(C)C2(CC2)C(=O)N[C@H](Cc2ccccc2)COc2cnc3ccc(F)cc3c2C(=O)N[C@H](C(=O)NCCc2noc(C3CC3)n2)CC(=O)N1C` [Example 144, (3′S,7′S,13′R)-13′-benzyl-N-(2-(5-cyclopropyl-1,2,4-oxadiazol-3-yl)ethyl)-20′-fluoro-7′-isobutyl-6′,9′-dimethyl-1′,5′,8′,11′-tetraoxo-2′,3′,4′,5′,6′,7′,8′,9′,11′,12′,13′,14′-dodecahydro-1′H-spiro[cyclopropane-1,10′-[1]oxa[4,7,10,14]tetraazacycloheptadecino[17,16-c]quinoline]-3′-carboxamide], the pEC50 was 6.68 and the Emax is 327%.
With `CC(C)C[C@H]1C(=O)N(C)C2(CC2)C(=O)N[C@H](Cc2ccccc2)COc2cnc3ccccc3c2C(=O)N[C@H](C(=O)NCC(F)(F)c2ccccc2)CC(=O)N1C` [Example 145, (3′S,7′S,13′R)-13′-benzyl-N-(2,2-difluoro-2-phenylethyl)-7′-isobutyl-6′,9′-dimethyl-1′,5′,8′,11′-tetraoxo-2′,3′,4′,5′,6′,7′,8′,9′,11′,12′,13′,14′-dodecahydro-1′H-spiro[cyclopropane-1,10′-[1]oxa[4,7,10,14]tetraazacycloheptadecino[17,16-c]quinoline]-3′-carboxamide], the pEC50 was 6.51 and the Emax worked out at 107%.
The like results for `Cc1noc(CCNC(=O)[C@@H]2CC(=O)N(C)[C@@H](CC(C)C)C(=O)N(C)C3(CC3)C(=O)N[C@H](Cc3ccccc3)COc3cnc4ccc(F)cc4c3C(=O)N2)n1` [Example 146, (3′S,7′S,13′R)-13′-benzyl-20′-fluoro-7′-isobutyl-6′,9′-dimethyl-N-(2-(3-methyl-1,2,4-oxadiazol-5-yl)ethyl)-1′,5′,8′,11′-tetraoxo-2′,3′,4′,5′,6′,7′,8′,9′,11′,12′,13′,14′-dodecahydro-1′H-spiro[cyclopropane-1,10′-[1]oxa[4,7,10,14]tetraazacycloheptadecino[17,16-c]quinoline]-3′-carboxamide] were, in that order, 6.61 and 318%.
With `Cc1cc(CCNC(=O)[C@@H]2CC(=O)N(C)[C@@H](CC(C)C)C(=O)N(C)C3(CC3)C(=O)N[C@H](Cc3ccccc3)COc3cnc4ccc(F)cc4c3C(=O)N2)on1` [Example 147, (3′S,7′S,13′R)-13′-benzyl-20′-fluoro-7′-isobutyl-6′,9′-dimethyl-N-(2-(3-methylisoxazol-5-yl)ethyl)-1′,5′,8′,11′-tetraoxo-2′,3′,4′,5′,6′,7′,8′,9′,11′,12′,13′,14′-dodecahydro-1′H-spiro[cyclopropane-1,10′-[1]oxa[4,7,10,14]tetraazacycloheptadecino[17,16-c]quinoline]-3′-carboxamide], the pEC50 is 6.57 and the Emax worked out at 339%.
In the case of `COc1cc2c(cc1OC)C(=O)N[C@H](C(=O)NCCc1ccc3c(c1)OCCC3)CC(=O)N(C)[C@@H](CC(C)C)C(=O)N(C)CC(=O)N[C@H](Cc1ccccc1)CO2` [Example 148, (3R,9S,13S)-3-benzyl-N-(2-(chroman-7-yl)ethyl)-9-isobutyl-17,18-dimethoxy-7,10-dimethyl-5,8,11,15-tetraoxo-2,3,4,5,6,7,8,9,10,11,12,13,14,15-tetradecahydrobenzo[p][1]oxa[4,7,10,14]tetraazacycloheptadecine-13-carboxamide], the pEC50 is 6.09 and the Emax was determined as 198%.
